Here are results for 6 molecules from patent publication US20260097036A1 (Kadmon Corporation, LLC, priority 2022, published 2026).

Several values for one entry are separate records, joined by “and”; a condition that tells them apart may be missing. Equal values may be shown once. Read-outs that look alike come from different tables or passages of the source.

Data set [1] in a line: Part 2 relative bioavailability and food effect, plasma PK. The settings on record: for Tlag / Tmax / AUC (0-24) / AUC (0-last) / Cmax / Lambda-z / T1/2 / median Tmax / AUC % extrap / half-life / AUC(0-inf) / AUC(0-t): plasma; for peak (Cmax) and total exposure (AUC), liquid formulation vs tablet: both in the fed state, GMR comparison; for food effect on exposure, fed vs fasted: oral liquid formulation. The class given is in vivo, human. As to the method: Subjects underwent preliminary screening procedures to determine their eligibility for Part 2 of the study at the screening visit (Day −28 to Day −2 of Part 2). Subjects who took part in Part 1 of the study were permitted to take part in Part 2.
Three different regimens (G, H, and I), were used over the three periods. In Regimen G, belumosudil was administered in Tablet form (reference); and in Regimens H and I, belumosudil was administered in the form of Oral Liquid Formulation.
In Period 1, Day 1: subjects were randomized prior to administration of the first dose of IMP to 1 of 6 treatment sequences (GHI, HIG, IGH, IHG, GIH and HGI) with 3 subjects assigned to each treatment sequence. On Day 1 of each study period (periods 1, 2 and 3), subjects received the regimens in Table 36:
Regimen H was administered to subjects as a flavorless low sucralose liquid formulation in a fasted state, and Regimens G and I were administered to subjects in a fed state. Regimen G was administered with a total of 240 mL of water. For Regimens H and I, immediately after IMP administration, subjects consumed water to a total volume of 240 mL (including the dosing volume).
Subjects received a single dose of IMP in the morning of Day 1 following an overnight fast of a minimum of 10 h (Regimen H, fasted state) or following a standard breakfast (Regimens G and I, fed state). Blood samples were collected at regular intervals for PK analysis. Following administration of Regimen H, subjects completed a written taste/palatability questionnaire individually and privately.
Subjects were resident in the clinical unit for 10 consecutive nights that covered all 3 treatment periods. All subjects remained on site until 72 h post-final dose for safety and PK assessments. There was a minimum washout of 3 days between each IMP administration. To ensure the ongoing wellbeing of the subjects, a follow-up phone call took place 3 to 7 days post-final dose. If a subject reported any AEs after discharge which represented a cause for concern, they were required to attend the clinical unit for a follow-up assessment. This would have been an unscheduled visit.

The conditions of data set [2]: cited from earlier work.
Data set [3] is described as follows: particle size distribution, Sympatec Helos wet dispersion. The class given is physicochemical. The settings on record: 40 mg/mL in water, R3 and R5 lens. As to the method: Samples were assessed using the Sympatec Helos Particle Size Analyzer using the generic method for wet dispersions as outlined below: • R5 Lens and R3 Lens • Sample added until 10-15% Copt achieved • Method run producing 3 replicates (sample stirred and sonicated throughout measurement run)
Samples were assessed using the Sympatec Helos Particle Size Analyzer, with sample added until 10-15% Copt was achieved. Two different lens assemblies were used giving the following ranges for particle size assessment, R3 Lens (0.5-175 μm) and the R5 Lens (4.8-875 μm). Three replicates were performed as part of the measurement run, with the sample stirred and sonicated as part of the method.

Where [4] appears, read: Regimen G: 200 mg Tablet, Fed, single oral dose, healthy male volunteers, median (range).
Setting [5] is: Regimen G: 200 mg Tablet, Fed, single oral dose, geometric mean (CV%).
[6] abbreviates: Regimen G: 200 mg Tablet, Fed, single oral dose, geometric mean (CV%), individual values where n <= 2.
The mark [7] stands for this setting: Regimen H: 200 mg Liquid Formulation, Fasted, single oral dose, healthy male volunteers, median (range).
[8] abbreviates: Regimen H: 200 mg Liquid Formulation, Fasted, single oral dose, geometric mean (CV%).
The mark [9] stands for this setting: Regimen H: 200 mg Liquid Formulation, Fasted, single oral dose, geometric mean (CV%), individual values where n <= 2.
Setting [10] is: Regimen I: 200 mg Liquid Formulation, Fed, single oral dose, healthy male volunteers, median (range).
The mark [11] stands for this setting: Regimen I: 200 mg Liquid Formulation, Fed, single oral dose, geometric mean (CV%).
Setting [12] is: Regimen I: 200 mg Liquid Formulation, Fed, single oral dose, geometric mean (CV%), individual values where n <= 2.

On to `NC(=O)COc1cccc(-c2nc(Nc3ccc4[nH]ncc4c3)c3ccccc3n2)c1` [KD025m1], for which the Tlag in data set [1] (setting [4]) is 1.00 h; in data set [1] (setting [7]), 0.00 (0.00-1.00) [n = 17] h; in data set [1] (setting [10]) it was 0.500 (0.00-1.00) [n = 17] h. Besides, the Tmax is 2.00 h in data set [1] (setting [4]), 1.00 (0.500-1.50) [n = 17] h in data set [1] (setting [7]) and 1.50 (0.500-3.00) [n = 17] h in data set [1] (setting [10]). For the same molecule, the “AUC (0-24)” value in data set [1] (setting [5]) was 45.3 (63.9%) [n = 15] ng · h/mL; in data set [1] (setting [8]) it was 34.9 (104.8%) [n = 12] ng · h/mL; in data set [1] (setting [11]) it was 49.4 (83.1%) [n = 17] ng · h/mL. In addition, the “AUC (0-last)” value is 42.7 (50.7%) [n = 15] ng · h/mL in data set [1] (setting [5]), 30.3 (70.9%) [n = 12] ng · h/mL in data set [1] (setting [8]) and 37.9 (53.2%) [n = 17] ng · h/mL in data set [1] (setting [11]). For the same molecule, the figures for the Cmax in data set [1] (setting [5]), in data set [1] (setting [8]) and in data set [1] (setting [11]) were 22.3 ng/mL, 19.0 (41.7%) [n = 17] ng/mL and 19.4 (27.6%) [n = 17] ng/mL, respectively. Moreover, the Lambda-z in data set [1] (setting [6]) is 0.24 h⁻¹ and 0.38 h⁻¹; in data set [1] (setting [9]) it was 0.26 h⁻¹ and 0.3 h⁻¹; in data set [1] (setting [12]), 0.326 [n = 1] l/h. The T1/2 in data set [1] (setting [6]) was 1.81 h and 2.88 h; in data set [1] (setting [9]), 2.28 h and 2.67 h; in data set [1] (setting [12]) it was 2.128 [n = 1] h. For the same molecule, the “peak (Cmax) and total exposure (AUC), liquid formulation vs tablet” value in data set [1] (listed as KD025 ml) was “largely similar to that of the tablet reference”. Also, the “food effect on exposure, fed vs fasted” value in data set [1] is given as “moderate increases in total exposure”. Further, the “median Tmax” value in data set [1] (single oral 200 mg as liquid formulation (fed)) is 1.5 h; in data set [1] (single oral 200 mg as tablet reference, fed, listed as KD025 ml) it was 2.00 h and 2 h.
For `O=C(O)COc1cccc(-c2nc(Nc3ccc4[nH]ncc4c3)c3ccccc3n2)c1` [KD025m2, 2-(3-(4-(1H-indazol-5-ylamino)quinazolin-2-yl)phenoxy) acetic acid], the Tlag is recorded as 1.00 h in data set [1] (setting [4]), 0.00 h in data set [1] (setting [7]) and 0.00 h in data set [1] (setting [10]). Moreover, the AUC % extrap in data set [1] (setting [5]) was 5.607 (49.8%) [n = 8]; in data set [1] (setting [8]), 4.453 (60.7%) [n = 10]; in data set [1] (setting [11]), 5.388 (43.1%) [n = 10]. For the same molecule, the Lambda-z in data set [1] (setting [5]) was 0.281 (43.1%) [n = 8] 1/h; in data set [1] (setting [8]), 0.277 (87.4%) [n = 10] 1/h; in data set [1] (setting [11]) it was 0.273 (56.5%) [n = 10] 1/h. Moreover, the “peak (Cmax) and total exposure (AUC), liquid formulation vs tablet” value in data set [1] was “similar”. Also, the half-life was 2.47 h in data set [1] (male, human, oral, 200 mg, tablet reference 200 mg, fed, read-out: geometric mean T1/2 (converted)); 2.47 h in data set [1] (male, human, po, 200 mg, Regimen G: 200 mg Tablet, Fed, single oral dose, geometric mean (CV%), individual values where n <= 2, read-out: T1/2 (converted)); 2.51 h in data set [1] (male, human, po, 200 mg, Regimen H: 200 mg Liquid Formulation, Fasted, single oral dose, geometric mean (CV%), individual values where n <= 2, read-out: T1/2 (converted)); 2.54 h in data set [1] (male, human, po, 200 mg, Regimen I: 200 mg Liquid Formulation, Fed, single oral dose, geometric mean (CV%), individual values where n <= 2, read-out: T1/2 (converted)). For the same molecule, the Tmax is 3 h in data set [1] (male, human, po, 200 mg, Regimen G: 200 mg Tablet, Fed, single oral dose, healthy male volunteers, median (range), read-out: Tmax); 1.5 h in data set [1] (male, human, po, 200 mg, Regimen H: 200 mg Liquid Formulation, Fasted, single oral dose, healthy male volunteers, median (range), read-out: Tmax); 2 h in data set [1] (male, human, po, 200 mg, Regimen I: 200 mg Liquid Formulation, Fed, single oral dose, healthy male volunteers, median (range), read-out: Tmax); 2 h in data set [1] (male, human, po, 200 mg, single oral 200 mg as liquid formulation (fed), read-out: median Tmax); 3 h in data set [1] (male, human, po, 200 mg, single oral 200 mg as tablet reference, fed, read-out: median Tmax). Moreover, the AUC(0-inf) in data set [1] (male, human, po, 200 mg, Regimen G: 200 mg Tablet, Fed, single oral dose, geometric mean (CV%)) is 1180 ng·h/mL; in data set [1] (male, human, po, 200 mg, Regimen H: 200 mg Liquid Formulation, Fasted, single oral dose, geometric mean (CV%)), 1030 ng·h/mL; in data set [1] (male, human, po, 200 mg, Regimen I: 200 mg Liquid Formulation, Fed, single oral dose, geometric mean (CV%)), 926 ng·h/mL. Also, the AUC(0-t) is 1280 ng·h/mL in data set [1] (male, human, po, 200 mg, Regimen G: 200 mg Tablet, Fed, single oral dose, geometric mean (CV%), read-out: AUC (0-24)); 1200 ng·h/mL in data set [1] (male, human, po, 200 mg, Regimen G: 200 mg Tablet, Fed, single oral dose, geometric mean (CV%), read-out: AUC (0-last)); 1130 ng·h/mL in data set [1] (male, human, po, 200 mg, Regimen H: 200 mg Liquid Formulation, Fasted, single oral dose, geometric mean (CV%), read-out: AUC (0-24)); 1080 ng·h/mL in data set [1] (male, human, po, 200 mg, Regimen H: 200 mg Liquid Formulation, Fasted, single oral dose, geometric mean (CV%), read-out: AUC (0-last)); 1180 ng·h/mL in data set [1] (male, human, po, 200 mg, Regimen I: 200 mg Liquid Formulation, Fed, single oral dose, geometric mean (CV%), read-out: AUC (0-24)); 1120 ng·h/mL in data set [1] (male, human, po, 200 mg, Regimen I: 200 mg Liquid Formulation, Fed, single oral dose, geometric mean (CV%), read-out: AUC (0-last)). The Cmax came out at 406 ng/mL in data set [1] (male, human, po, 200 mg, Regimen G: 200 mg Tablet, Fed, single oral dose, geometric mean (CV%), read-out: Cmax); 372 ng/mL in data set [1] (male, human, po, 200 mg, Regimen H: 200 mg Liquid Formulation, Fasted, single oral dose, geometric mean (CV%), read-out: Cmax); 319 ng/mL in data set [1] (male, human, po, 200 mg, Regimen I: 200 mg Liquid Formulation, Fed, single oral dose, geometric mean (CV%), read-out: Cmax). For the same molecule, the “food effect on exposure, fed vs fasted” value in data set [1] was “No notable changes”.
In the case of `O=C([O-])c1ccccc1.[Na+]` [Sodium Benzoate], in data set [2] (JECFA (1996)), the ADI was 2-5. The JECFA (1996) has set an ADI of up to 5 mg/kg body- mg/kg body-weight.
For the molecule `OC[C@H]1O[C@H](O[C@]2(CCl)O[C@H](CCl)[C@@H](O)[C@@H]2O)[C@H](O)[C@@H](O)[C@H]1Cl` [Sucralose], in data set [2] (set in 2000), the ADI entry is reported as “An ADI of up to 15 mg/kg body weight was set in 2000. In”.
Consider `CC(C)NC(=O)COc1cccc(-c2nc(Nc3ccc4[nH]ncc4c3)c3ccccc3n2)c1` [jet-milled belumosudil], for which the “PSD of wet dispersion in sterile water for irrigation” value in data set [3] was “poor results with readings that were inconsistent between the measurement runs”.
Regarding `CC(C)NC(=O)COc1cccc(-c2nc(Nc3ccc4[nH]ncc4c3)c3ccccc3n2)c1` [pin-milled API], in data set [3], the “PSD of wet dispersion in sterile water for irrigation” value is on record as “reproducibility between replicates”.
